Literature values in US5275819A, “Drug loaded pollen grains with an outer coating for pulsed delivery” (Amer Particle Technologies Inc., priority 1991, dated 1994).

Conditions: compared with GNRH

CC(C)C[C@H](NC(=O)[C@@H](Cc1ccc2ccccc2c1)NC(=O)[C@H](Cc1ccc(O)cc1)NC(=O)[C@H](CO)NC(=O)[C@H](Cc1c[nH]c2ccccc12)NC(=O)[C@H](Cc1c[nH]cn1)NC(=O)[C@@H]1CCC(=O)N1)C(=O)N[C@@H](CCCNC(=N)N)C(=O)N1CCC[C@H]1C(=O)NCC(N)=O [Nafarelin]
activity relative to GNRH: 200 times
